Data: the OPERA property sets (Mansouri et al. 2018)

Details: not given

In order of rising boiling point:
1. CC#CC  26.9 °C
2. CCC#CCC  81 °C
3. OCCC(F)(F)F  99.5 °C
4. ClC(Cl)(Cl)Br  105 °C
5. CC1CCS1 (stereo not given)  107 °C
6. C=CCCO  114 °C
7. CC(C)C(C)C(C)C  114 °C
8. CCC(C)(CC)CC  118 °C
9. CC(Cl)=C(Cl)Cl  118 °C
10. CCC=C(C)CCC  121 °C
11. OCCCC(F)(F)F  125 °C
12. CCCCCCCC  126 °C
13. Cc1cccc(C)c1  139 °C
14. CC(C)(C)N=C=S  140 °C
15. CCC[C@](C)(O)CC  143 °C
16. CCNCCNCC  146 °C
17. CC(C)CCO[N+](=O)[O-]  146 °C
18. ClSC(Cl)(Cl)Cl  148 °C
19. CCOS(=O)(=O)Cl  152 °C
20. COCCC#N  163 °C
21. CCCC(C)(CC)C(C)C (stereo not given)  166 °C
22. CCCCC(CC)CN (stereo not given)  169 °C
23. CCCCCCC(=O)OC  174 °C
24. C=Cc1ccc(C)nc1  181 °C
25. N#Cc1ccccc1  191 °C
26. CCCSSCCC  194 °C
27. Cc1ccc(CCl)cc1  201 °C
28. ClC(Cl)(Cl)CC(Cl)(Cl)Cl  206 °C
29. CCN(CC)C(=O)N(CC)CC  209 °C
30. CC(C)c1ccc(C(C)C)cc1  210 °C
31. IC(I)I  218 °C
32. Nc1ccccc1S  234 °C
33. Cc1ccc(N)c(Br)c1  240 °C
34. O=C1OCCO1  248 °C
35. Cc1cc(O)c(C(C)(C)C)cc1C  258 °C
36. O=C1CCCCCN1  270 °C
37. Cc1cc(N)ccc1N  274 °C
38. Brc1cnc2ccccc2c1  275 °C
39. O=C(CCC(=O)Oc1ccccc1)Oc1ccccc1  330 °C
40. O=C(c1ccccc1)c1ccc(Cl)cc1  332 °C

In order of falling log10 vapour pressure (mmHg):
1. CC#CC  2.85
2. ClC(Cl)(Cl)Br  1.59
3. CC(C)C(C)C(C)C  1.43
4. CCC(C)(CC)CC  1.36
5. CN(C)O  1.33
6. CCCCCCCC  1.15
7. Cc1cccc(C)c1  0.919
8. C[Si](F)(F)c1ccccc1  0.881
9. CC(C)CCO[N+](=O)[O-]  0.71
10. ClSC(Cl)(Cl)Cl  0.477
11. CCC[C@](C)(O)CC  0.291
12. CCCCC(CC)CN (stereo not given)  0.146
13. C=Cc1ccc(C)nc1  0.0719
14. N#Cc1ccccc1  -0.115
15. CCCSSCCC  -0.291
16. Cc1ccc(CCl)cc1  -0.527
17. CC(C)c1ccc(C(C)C)cc1  -0.609
18. O=C1OCCO1  -2.01
19. CCC(C)c1ccc(O)c([N+](=O)[O-])c1 (stereo not given)  -2.34
20. O=C1CCCCCN1  -2.8
21. CCCCCCCCCCCCCCCCCC(=O)OC(C)C  -4.4
22. COc1c(Cl)ccc(Cl)c1C(=O)O  -4.47
23. COC(=O)C(C)Oc1ccc(Oc2ccc(Cl)cc2Cl)cc1 (stereo not given)  -5.46
24. CCCOCCN(C(=O)CCl)c1c(CC)cccc1CC  -6
25. C[C@@H]1[C@@H](c2ccc(Cl)cc2)SC(=O)N1C(=O)NC1CCCCC1 (single isomer, unassigned)  -7.59
26. CC(C)(C)[C@@H](O)[C@@H](Cc1ccc(Cl)cc1)n1cncn1 (single isomer, unassigned)  -8.12
27. Clc1cc2c(c(Cl)c1Cl)Oc1c(cc(Cl)c(Cl)c1Cl)O2  -10.3

In order of rising melting point:
1. CC(C)C(C)C(C)C  -109 °C
2. CCC#CCC  -103 °C
3. CCC(C)(CC)CC  -90.9 °C
4. CCCSSCCC  -85.6 °C
5. CCCCC(CC)CN (stereo not given)  -76 °C
6. CCCCCCCC  -56.8 °C
7. CCCCCCC(=O)OC  -56 °C
8. CCCCCSCCCCC  -51.3 °C
9. Cc1cccc(C)c1  -47.8 °C
10. CC#CC  -32.3 °C
11. ClC(Cl)(Cl)CC(Cl)(Cl)Cl  -27 °C
12. CC(C)c1ccc(C(C)C)cc1  -17 °C
13. N#Cc1ccccc1  -12.7 °C
14. ClC(Cl)(Cl)Br  -5.7 °C
15. O=C1C=CCO1  4.5 °C
16. CCCCCC[C@@H](O)C/C=C\CCCCCCCC(=O)O  5.5 °C
17. CC(C)(C)N=C=S  10.5 °C
18. Brc1cnc2ccccc2c1  13.3 °C
19. CC(C)(O)CCc1ccccc1  24.5 °C
20. Cc1ccc(N)c(Br)c1  26 °C
21. Nc1ccccc1S  26 °C
22. CCCCCCCCCCCCCCCCCC(=O)OC(C)C  28 °C
23. O=C1CCCCCCCCCCCCCCO1  32 °C
24. Cc1ccc2c(C)cccc2c1C  33.5 °C
25. O=C1OCCO1  39.5 °C
26. COC(=O)C(C)Oc1ccc(Oc2ccc(Cl)cc2Cl)cc1 (stereo not given)  40 °C
27. CN(C)C(=O)OC1=CC(=O)CC(C)(C)C1  45.5 °C
28. Cc1cc(O)c(C(C)(C)C)cc1C  46 °C
29. N#CCCC(Br)(C#N)CBr (stereo not given)  52 °C
30. S=C(c1ccccc1)c1ccccc1  53.5 °C
31. CCCCCCCCCCCCCCCC(C)O (stereo not given)  54 °C
32. Oc1cc(Cl)ccc1Oc1ccc(Cl)cc1Cl  55.6 °C
33. Cc1ccccc1OC(=O)Oc1ccccc1C  60 °C
34. Cc1cc(N)ccc1N  64 °C
35. O=Cc1ccc(Br)cc1  67 °C
36. O=C1CCCCCN1  69.3 °C
37. O=C(c1ccccc1)c1ccc(Cl)cc1  77.5 °C
38. Nc1ccc(Oc2ccccc2)cc1  83 °C
39. CCCCCCCCCCCCCCCCCCCCCCCC(=O)O  84.2 °C
40. CCOC(=O)C(NC(C)=O)C(=O)OCC  96.3 °C
41. CCN(CC)CCOc1ccc(C(O)(Cc2ccc(Cl)cc2)c2ccc(C)cc2)cc1 (stereo not given)  103 °C
42. ClCC1C(CCl)C2(Cl)C(Cl)=C(Cl)C1(Cl)C2(Cl)Cl (stereo not given)  105 °C
43. CN(C)O  108 °C
44. C[C@@H]1[C@@H](c2ccc(Cl)cc2)SC(=O)N1C(=O)NC1CCCCC1 (single isomer, unassigned)  108 °C
45. c1ccc2c(Nc3cccc4ccccc34)cccc2c1  115 °C
46. CN1CCC(N(Cc2ccccc2)c2ccccc2)CC1  115 °C
47. COc1c(Cl)ccc(Cl)c1C(=O)O  115 °C
48. IC(I)I  119 °C
49. O=C(CCC(=O)Oc1ccccc1)Oc1ccccc1  121 °C
50. O=C1CCN(c2ccccc2)N1  126 °C
51. OC[C@]1(O)OC[C@@H](O)[C@H](O)[C@@H]1O  134 °C
52. CC(O)Cn1cnc2c1c(=O)n(C)c(=O)n2C (stereo not given)  136 °C
53. COC(=O)C1(O)c2ccccc2-c2ccc(Cl)cc21 (stereo not given)  139 °C
54. CC(=O)c1ccc(O)cc1O  146 °C
55. C=C1C(=O)OC2[C@H]1CC[C@H](C)[C@@H]1C=CC(=O)[C@@]21C (stereo not given in full)  146 °C
56. COc1ccc(Cc2nccc3cc(OC)c(OC)cc23)cc1OC  148 °C
57. CN(C)c1ccc(C=Cc2ccccc2)cc1  150 °C
58. O=C1c2ccccc2C(=O)C1c1ccccc1  150 °C
59. CCC(Cc1c(I)cc(I)c(N)c1I)C(=O)O (stereo not given)  155 °C
60. NC(=O)c1cccc(Br)c1  155 °C
61. O=C(O)c1c(F)cccc1F  159 °C
62. O=C(O)c1c(F)c(F)c(F)c(F)c1C(=O)O  163 °C
63. Cc1ncc(CO)c(C=O)c1O.Cl  165 °C
64. NS(=O)(=O)c1ccc(S(=O)(=O)CCO)c(F)c1  165 °C
65. CC(C)(C)[C@@H](O)[C@@H](Cc1ccc(Cl)cc1)n1cncn1 (single isomer, unassigned)  166 °C
66. Cl.c1ccc(CC2=NCCN2)cc1  175 °C
67. NNC(N)=S  183 °C
68. Nc1cccc2c(N)cccc12  190 °C
69. O=C(Nc1ccc(Cl)cc1)Nc1ccc(Cl)c(C(F)(F)F)c1  214 °C
70. COc1cc2c3c(c4ccc(OC)c(OC)c4c2cc1OC)CN1CCC[C@H]1C3  220 °C
71. O=C(O)c1ccc(O)c(O)c1O  221 °C
72. O=C(Nc1ccc(Cl)c(Cl)c1)Nc1cc(Cl)ccc1Oc1ccc(Cl)cc1S(=O)(=O)[O-].[Na+]  223 °C
73. Clc1cc2c(c(Cl)c1Cl)Oc1c(cc(Cl)c(Cl)c1Cl)O2  243 °C
74. COc1nc(C)nc(N)n1  260 °C
75. Nc1ccc(O)c(C(=O)O)c1  283 °C
76. CC(C)C[C@H](N)C(=O)O  293 °C
77. CC1(C)O[C@H]2CC(=O)OC[C@]23[C@H]2CC[C@@]4(C)[C@H](c5ccoc5)OC(=O)[C@H]5O[C@]54[C@]2(C)C(=O)C[C@@H]13  298 °C
78. CC[C@](C)(N)C(=O)O (racemic)  316 °C

With O=C1CCCCCN1 the ready biodegradability was “readily biodegradable”.
For Nc1cccc2c(N)cccc12, the ready biodegradability was “not readily biodegradable”.
In the case of COC(=O)C(C)Oc1ccc(Oc2ccc(Cl)cc2Cl)cc1 (stereo not given), the ready biodegradability is reported as “readily biodegradable”.
In the case of O=C1OCCO1, the ready biodegradability is reported as “readily biodegradable”.
With Oc1cc(Cl)ccc1Oc1ccc(Cl)cc1Cl the ready biodegradability was “not readily biodegradable”.
In the case of N#Cc1ccccc1, the ready biodegradability is reported as “readily biodegradable”.
For N#Cc1c(Cl)c(Cl)c(Cl)c(Cl)c1C#N, the ready biodegradability was “not readily biodegradable”.
With CC(C)c1ccc(C(C)C)cc1 the ready biodegradability was “not readily biodegradable”.
For Cc1cccc(C)c1, the ready biodegradability was “readily biodegradable”.
For NNC(N)=S, the ready biodegradability was “not readily biodegradable”.
With CC#CC the ready biodegradability was “not readily biodegradable”.
With NCCCC1OCC2(CO1)COC(CCCN)OC2 (stereo not given) the ready biodegradability was “not readily biodegradable”.
In the case of CCCCCCCC, the ready biodegradability is reported as “readily biodegradable”.

In order of rising log10 Henry constant (atm·m³/mol):
1. CCCOCCN(C(=O)CCl)c1c(CC)cccc1CC  -8.1
2. O=Cc1ccncc1  -6.75
3. CCC(C)c1ccc(O)c([N+](=O)[O-])c1 (stereo not given)  -4.02
4. CC(C)CCO[N+](=O)[O-]  -2.59
5. Cc1cccc(C)c1  -2.14

In order of rising log10 Koc (L/kg):
1. COc1c(Cl)ccc(Cl)c1C(=O)O  1.5
2. NC(=O)Nc1ccccc1Cl  1.61
3. Cc1cccc(C)c1  2.25
4. CC(C)(C)[C@@H](O)[C@@H](Cc1ccc(Cl)cc1)n1cncn1 (single isomer, unassigned)  2.7
5. C[C@@H]1[C@@H](c2ccc(Cl)cc2)SC(=O)N1C(=O)NC1CCCCC1 (single isomer, unassigned)  3.79
6. COC(=O)C(C)Oc1ccc(Oc2ccc(Cl)cc2Cl)cc1 (stereo not given)  4.2

In order of falling log10 Koa:
1. Clc1cc2c(c(Cl)c1Cl)Oc1c(cc(Cl)c(Cl)c1Cl)O2  11
2. N#Cc1ccccc1  4.46
3. Cc1cccc(C)c1  3.78
4. CCCCCCCC  3.35

In order of rising log10 biodegradation half-life (days):
1. CCCCCCCC  0.954
2. Cc1cccc(C)c1  1
3. CC(C)C(C)C(C)C  1.18

Same assay, conditions: fish

In order of falling log10 BCF:
1. Clc1cc2c(c(Cl)c1Cl)Oc1c(cc(Cl)c(Cl)c1Cl)O2  3.92
2. CC(C)c1ccc(C(C)C)cc1  3.24
3. CC1(C)[C@H](C(=O)OCc2cccc(Oc3ccccc3)c2)[C@@H]1C=C(Cl)Cl (single isomer, unassigned)  2.65
4. Clc1ccc2c(c1)Oc1ccc(Cl)cc1O2  2.54
5. Oc1cc(Cl)ccc1Oc1ccc(Cl)cc1Cl  1.72
6. Cc1cccc(C)c1  1.17
7. Nc1cccc2c(N)cccc12  0.65
8. Sc1nc2ccccc2[nH]1  0.41
9. O=S(=O)([O][Na])c1ccc2cc(O)c(S(=O)(=O)[O][Na])cc2c1  0.3

In order of falling log10 biotransformation half-life (days):
1. Clc1cc2c(c(Cl)c1Cl)Oc1c(cc(Cl)c(Cl)c1Cl)O2  1.3
2. CC(C)c1ccc(C(C)C)cc1  0.6
3. CC1(C)[C@H](C(=O)OCc2cccc(Oc3ccccc3)c2)[C@@H]1C=C(Cl)Cl (single isomer, unassigned)  0.37
4. Clc1ccc2c(c1)Oc1ccc(Cl)cc1O2  0.23
5. Nc1cccc2c(N)cccc12  -0.52
